Experimental findings from PubChem BioAssay (NCI) are described below.

Values joined by “and” are separate entries in the source; they are usually repeats but may differ in a detail not shown here. Equal entries are not always repeated.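 Five concentrations, 48 hours, 96-well plates. GI50: concentration for 50% inhibition of growth. TGI denotes the concentration required for complete inhibition of growth.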

Among the test systems are OVCAR-4 ovarian; OVCAR-8 ovarian; ACHN renal; SNB-75 CNS; SW-620 colon; A549 NSCLC; UACC-257 melanoma; K-562 leukemia; HCT-15 colon; SN12C renal.
Common to all, as to assay: NCI tumour cell line growth inhibition, 48 h

Take `O=C(/C=C/c1ccccc1)CC1OC(=O)c2ccccc21` (centres undefined): the TGI with OVCAR-4 ovarian, in the assay with OVCAR-8 ovarian, with ACHN renal, with SNB-75 CNS, in the assay on SW-620 colon and in the assay with A549 NSCLC was more than 100 µM each time. In addition, the TGI with UACC-257 melanoma, with K-562 leukemia and with HCT-15 colon was more than 100 µM in each case.

Turning to `CSC(CC(=O)O)C(=O)O` (centres undefined), the TGI in the assay with OVCAR-4 ovarian, in the assay on SN12C renal, with OVCAR-8 ovarian, in the assay with ACHN renal, in the assay with SNB-75 CNS and with SW-620 colon was more than 100 µM throughout. Moreover, the TGI in the assay on A549 NSCLC, with UACC-257 melanoma and in the assay on HCT-15 colon was more than 100 µM each time.

In the case of `CO/C(=N\N=C\c1cccc(Cl)c1)c1ccncc1`, the TGI in the assay with OVCAR-4 ovarian, in the assay on SN12C renal, with OVCAR-8 ovarian, in the assay on ACHN renal, with SW-620 colon and in the assay on A549 NSCLC was more than 10 µM in each case. Besides, the TGI in the assay with UACC-257 melanoma, in the assay on K-562 leukemia and in the assay on HCT-15 colon was more than 10 µM each time.

For the compound `CC1CC2CC(=O)CC3(C1)C2CCCN3CCCO` (centres undefined), the TGI with OVCAR-4 ovarian, in the assay with SN12C renal, in the assay on OVCAR-8 ovarian, in the assay on ACHN renal, in the assay on SNB-75 CNS and in the assay on SW-620 colon was more than 100 µM in each case. Besides, the TGI in the assay on A549 NSCLC, with UACC-257 melanoma and in the assay with K-562 leukemia was more than 100 µM each time.

As to `COc1ccc(NC(=O)C(=O)Cc2nc3ccc([N+](=O)[O-])cc3[nH]c2=O)c(OC)c1`, the TGI in the assay on OVCAR-4 ovarian, with ACHN renal, in the assay on SNB-75 CNS, in the assay on SW-620 colon, in the assay on A549 NSCLC and in the assay on UACC-257 melanoma was more than 100 µM in each case. Besides, the TGI with K-562 leukemia and with HCT-15 colon was more than 100 µM each time.

As for `O=C(O)COc1ccc(O)c2c1C(=O)CCCC2=O`, the TGI with OVCAR-4 ovarian, in the assay on SN12C renal, in the assay on OVCAR-8 ovarian, in the assay on ACHN renal, in the assay on SW-620 colon and in the assay with A549 NSCLC was more than 100 µM in each case. In addition, the TGI in the assay with UACC-257 melanoma, with K-562 leukemia and in the assay with HCT-15 colon was more than 100 µM in each case.

For the compound `CC(C)CNCC(O)COc1ccc(C(C)(C)c2ccc(OCC(O)CNCC(C)C)cc2)cc1` (centres undefined), the GI50 is 6.52 µM in the assay on OVCAR-4 ovarian; 4.82 µM in the assay with SN12C renal; 2.01 µM in the assay with OVCAR-8 ovarian; 1.82 µM in the assay on ACHN renal; 4 µM in the assay with SNB-75 CNS; 1.72 µM in the assay with SW-620 colon. In addition, the GI50 is 2.08 µM with A549 NSCLC, 1.73 µM in the assay with UACC-257 melanoma and 2.2 µM with HCT-15 colon. In addition, the TGI turned out to be 21.4 µM in the assay with OVCAR-4 ovarian; 18.3 µM in the assay with SN12C renal; 4.42 µM in the assay on OVCAR-8 ovarian; 3.41 µM in the assay on ACHN renal; 18.2 µM with SNB-75 CNS; 3.46 µM in the assay on SW-620 colon. Also, the TGI in the assay with A549 NSCLC was 4.84 µM; with UACC-257 melanoma, 3.26 µM; with HCT-15 colon, 7.35 µM.

As to `O=C(Nc1ccc(Cl)cc1Cl)C(=O)C(C(=O)c1ccc2ccccc2c1)C1OC(=O)c2ccccc21` (centres undefined), the TGI in the assay with OVCAR-4 ovarian was 35.2 µM; in the assay on SN12C renal, 30.7 µM; in the assay with OVCAR-8 ovarian it was 34.6 µM; in the assay on ACHN renal it was more than 100 µM; with SW-620 colon, 24.9 µM; in the assay on A549 NSCLC it was 73.6 µM. Further, the TGI in the assay on UACC-257 melanoma amounted to 65.3 µM; in the assay on HCT-15 colon it was 42.3 µM.

With `COc1ccc(-c2cc(=O)c3c(C)cc(C)nc3[nH]2)cc1`, the TGI in the assay on OVCAR-4 ovarian, in the assay on SN12C renal, with OVCAR-8 ovarian, in the assay on ACHN renal, in the assay on SW-620 colon and in the assay on A549 NSCLC was more than 100 µM throughout. For the same compound, the TGI in the assay on UACC-257 melanoma was 85.3 µM; with K-562 leukemia, more than 100 µM; with HCT-15 colon, more than 100 µM.

Take `O=C(Nc1cccs1)c1c(O)[nH]c(=S)[nH]c1=O`: the TGI in the assay on OVCAR-4 ovarian, with SN12C renal, in the assay with OVCAR-8 ovarian, in the assay with ACHN renal, with SW-620 colon and in the assay on A549 NSCLC was more than 100 µM each time. Further, the TGI in the assay on UACC-257 melanoma, in the assay on K-562 leukemia and in the assay on HCT-15 colon was more than 100 µM in each case.

On to `O=C(O)C1C2CCC(O2)C1C(=O)N1CCCCC1` (centres undefined), for which the TGI with OVCAR-4 ovarian was 24.4 µM; with SN12C renal, 7.17 µM; with OVCAR-8 ovarian it was 18.1 µM; with ACHN renal, 17 µM; in the assay on SNB-75 CNS, 17.2 µM; with SW-620 colon it was 15 µM. Moreover, the TGI with A549 NSCLC was more than 100 µM; in the assay with UACC-257 melanoma, 32.4 µM; in the assay with HCT-15 colon it was 26.1 µM.

In the case of `O=C1C=CC=CC2CC=C[C@@H](O)C12` (some centres undefined), the TGI with OVCAR-4 ovarian is more than 100 µM; with SN12C renal it was 47.2 µM; with OVCAR-8 ovarian, more than 100 µM; in the assay on ACHN renal, 31.8 µM; in the assay with SW-620 colon it was 35.3 µM; in the assay with A549 NSCLC, 67.7 µM. Further, the TGI in the assay with UACC-257 melanoma was 29.7 µM; with K-562 leukemia, more than 100 µM; in the assay on HCT-15 colon, 35.2 µM.

On to `O=c1[nH]c(=O)n([C@@H]2C[C@H](CO)[C@H](O)C2)cc1/C=C/Br`, for which the TGI with OVCAR-4 ovarian, in the assay with OVCAR-8 ovarian, in the assay with ACHN renal, in the assay with SNB-75 CNS, with SW-620 colon and in the assay with A549 NSCLC was more than 100 µM throughout. Besides, the TGI with UACC-257 melanoma, in the assay with K-562 leukemia and with HCT-15 colon was more than 100 µM in each case.

Consider `O=C(c1ccc2ccccc2c1)c1c(C(F)(F)F)n([O-])c2cc(F)c(F)cc2[n+]1=O`, for which the GI50 was 13 µM with OVCAR-4 ovarian; 2.03 µM in the assay on ACHN renal; 4.29 µM in the assay with SNB-75 CNS; 4.33 µM in the assay on A549 NSCLC; 2.53 µM in the assay on UACC-257 melanoma; 0.314 µM in the assay on K-562 leukemia. In addition, the GI50 in the assay on HCT-15 colon was 1.76 µM. In addition, the TGI in the assay on OVCAR-4 ovarian turned out to be 27.2 µM; in the assay on ACHN renal, 4.16 µM; with SNB-75 CNS, 15 µM; in the assay with A549 NSCLC, 16.4 µM; in the assay on UACC-257 melanoma, 6.45 µM; in the assay with K-562 leukemia, 1.44 µM. Moreover, the TGI in the assay with HCT-15 colon was 4.37 µM.

On to `CC12N=NN(c3ccc([N+](=O)[O-])cc3)C1(O)c1ccccc1C2=O` (centres undefined), for which the TGI in the assay on SN12C renal, with OVCAR-8 ovarian, with ACHN renal, in the assay with SW-620 colon, in the assay on A549 NSCLC and with UACC-257 melanoma was more than 100 µM each time. Moreover, in the assay with HCT-15 colon, the TGI is more than 100 µM.

In the case of `CC[C@@]1(O)C[C@H](OC2CC(N(C)C)C(OC3CC(O)C(OC4CCC(=O)C(C)O4)C(C)O3)C(C)O2)c2c(cc3c(c2O)C(=O)c2c(O)cccc2C3=O)[C@H]1C(=O)OC` (some centres undefined), the TGI with OVCAR-4 ovarian was 0.221 µM and 0.196 µM; with OVCAR-8 ovarian, 0.956 µM and 0.404 µM; with ACHN renal it was 0.579 µM; in the assay with UACC-257 melanoma it was 0.179 µM and 0.26 µM; with HCT-15 colon it was 0.436 µM and 0.826 µM.

As to `Cn1nc(-c2ccccc2)c(C(=O)/C=C/c2ccc(F)cc2)c(N2CCCCC2)c1=O`, the TGI in the assay with SN12C renal was more than 100 µM; with OVCAR-8 ovarian it was 75.6 µM; with ACHN renal it was 27.7 µM; with SW-620 colon, 45.3 µM; in the assay with A549 NSCLC, 55.1 µM; in the assay with K-562 leukemia, 13 µM. Also, the TGI in the assay on HCT-15 colon is more than 100 µM.

As to `CC1CC#CCOC(=O)CCCC1=O` (centres undefined), the TGI in the assay with OVCAR-4 ovarian, in the assay on SN12C renal, with OVCAR-8 ovarian, in the assay on SNB-75 CNS, in the assay on SW-620 colon and with A549 NSCLC was more than 100 µM in each case. The compound also displayed a TGI with K-562 leukemia of more than 100 µM.

Take `O=C(Nc1cccc([N+](=O)[O-])c1)C(=O)C(C(=O)c1ccccc1-c1ccccc1)C1OC(=O)c2ccccc21` (centres undefined): the TGI in the assay with OVCAR-8 ovarian is 71 µM; in the assay on ACHN renal, more than 100 µM; with SNB-75 CNS, 64.8 µM; in the assay on SW-620 colon, 73.6 µM; in the assay with A549 NSCLC it was 82.7 µM; in the assay on UACC-257 melanoma, 93.4 µM. In addition, the TGI in the assay on K-562 leukemia is more than 100 µM.

Turning to `C/C(=N\O)c1cccc(Nc2cc(-n3ccnn3)c3ccccc3n2)c1`, the GI50 in the assay on OVCAR-4 ovarian is 0.25 µM; with SN12C renal it was 15.4 µM; in the assay with OVCAR-8 ovarian, 17.5 µM; in the assay on ACHN renal, 15 µM; in the assay with SW-620 colon, 21.1 µM; in the assay with A549 NSCLC, 16.9 µM. The GI50 was 12.9 µM with UACC-257 melanoma, 14.9 µM with K-562 leukemia and 13.5 µM in the assay with HCT-15 colon. Besides, the TGI was 27.8 µM in the assay on OVCAR-4 ovarian; 34 µM in the assay with SN12C renal; 41 µM with OVCAR-8 ovarian; 34 µM in the assay on ACHN renal; 50.6 µM in the assay on SW-620 colon; 43.2 µM with A549 NSCLC. The TGI with UACC-257 melanoma is 27.9 µM; with K-562 leukemia it was 36.5 µM; with HCT-15 colon, 27.4 µM.
